According to patent US9079901B2, “Fused heterocyclic compounds as ion channel modulators” (Gilead Sciences, Inc., priority 2010, dated 2015):

Target: wild-type human cardiac sodium channel, hNav1.5 (late sodium current) in HEK293 cells (Homo sapiens, UniProt Q14524)
Experiment: Late INa screening assay (automated whole-cell patch clamp, PatchXpress)
Assay type: cell-based
Details: late INa generated with 10 μM Tefluthrin (or 50 nM ATX II), HEK293 hNav1.5; for inhibition at 1 µM: HEK293, compound at 1 μM, read-out: Late INa 1 μM (percent block of late INa)
Method: The late sodium current (Late INa) and peak sodium current (Peak INa) assays are performed on an automated electrophysiology platform, PatchXpress 7000A (MDS Analytical Technologies, Sunnyvale, Calif.), which uses the whole cell patch clamp technique to measure currents through the cell membrane of up to 16 cells at a time. The assay uses an HEK293 (human embryonic kidney) cell line heterologously expressing the wild-type human cardiac sodium channel, hNav1.5, purchased from Millipore (Billerica, Mass.). No beta subunits were coexpressed with the Na channel alpha subunit. Cells are maintained with standard tissue culture procedures and stable channel expression is maintained with 400 μg/ml Geneticin in the culture medium. Cells isolated for use on PatchXpress are incubated for 5 minutes in Versene 1× and then for 2 minutes in 0.0125% Trypsin-EDTA (both at 37° C.) to ensure that 80-90% of the cells are single and not part of a cell cluster. Experiments are carried out at 24-27° C.
For both the Late INa and Peak INa assays, series resistance compensation is set to 50% and whole-cell compensation is performed automatically. Currents are low-pass filtered at 10 kHz and digitized at 31.25 kHz. Currents through open sodium channels are automatically recorded and stored in the DataXpress2 database (MDS Analytical Technologies, Sunnyvale, Calif.). Analysis is performed using DataXpress2 analysis software and data are compiled in Excel.
Compound stocks are routinely made in glass vials to 10 mM in dimethyl sulfoxide (DMSO). In some cases, when compounds are not soluble in DMSO, they are made in 100% ethanol. Stocks are sonicated as necessary. The extracellular solution for screening Late INa is composed of: 140 mM NaCl, 4 mM KCl, 1.8 mM CaCl2, 0.75 mM MgCl2, and 5 mM HEPES with pH adjusted to 7.4 using NaOH. The extracellular solution for screening Peak INa is composed of: 20 mM NaCl, 120 mM N-methyl-D glucamine, 4 mM KCl, 1.8 mM CaCl2, 0.75 mM MgCl2, and 5 mM HEPES with pH adjusted to 7.4 using HCl. The intracellular solution used to perfuse the inside of the cells for both the Late INa and Peak INa assays contains: 120 mM CsF, 20 mM CsCl, 5 mM EGTA, 5 mM HEPES and pH adjusted to 7.4 with CsOH. Compounds are diluted in extracellular solution to 10 μM in glass vials and then transferred to glass well plates before robotic addition to the cells. The 0Na extracellular solution used at the end of each experiment for the Late INa and Peak INa assays to measure baseline current contains: 140 mM N-methyl-D-glucamine; 4 mM KCl; 1.8 mM CaCl2; 0.75 mM MgCl2; 5 mM HEPES and pH was adjusted to 7.4 with HCl.
For the Late INa assay, sodium channels are activated every 10 seconds (0.1 Hz) by depolarizing the cell membrane to −20 mV for 250 milliseconds (ms) from a holding potential of −120 mV. In response to a −20 mV voltage step, typical Nav1.5 sodium currents activate rapidly to a peak negative current and then inactivate nearly completely within 3-4 ms.
All compounds are tested to determine their activity in blocking the late sodium current. Late INa current is generated by adding 10 μM Tefluthrin (pyrethroid) to the extracellular solution while recording Na currents. For some experiments, 50 nM ATX II (sea anemone toxin), another late INa activator, was used to generate the late component. Both activators generate late components that are large enough that block of the late component by compounds can be measured easily. For the purposes of the screening, late INa is defined as the mean current between 225 ms and 250 ms after stepping to −20 mV to activate Na channels. After establishing the whole cell recording configuration, late INa activators are added to each well 4 times over a 16-17 minute period so that the late component of the Na current reaches a stable value. Compounds are then added (typically at 10 μM), in the presence of late INa activator, with 3 additions over the course of 7 or 8 minutes. […]

wild-type human cardiac sodium channel, hNav1.5 (late sodium current) in HEK293 cells, sequence (Q14524 whole entry): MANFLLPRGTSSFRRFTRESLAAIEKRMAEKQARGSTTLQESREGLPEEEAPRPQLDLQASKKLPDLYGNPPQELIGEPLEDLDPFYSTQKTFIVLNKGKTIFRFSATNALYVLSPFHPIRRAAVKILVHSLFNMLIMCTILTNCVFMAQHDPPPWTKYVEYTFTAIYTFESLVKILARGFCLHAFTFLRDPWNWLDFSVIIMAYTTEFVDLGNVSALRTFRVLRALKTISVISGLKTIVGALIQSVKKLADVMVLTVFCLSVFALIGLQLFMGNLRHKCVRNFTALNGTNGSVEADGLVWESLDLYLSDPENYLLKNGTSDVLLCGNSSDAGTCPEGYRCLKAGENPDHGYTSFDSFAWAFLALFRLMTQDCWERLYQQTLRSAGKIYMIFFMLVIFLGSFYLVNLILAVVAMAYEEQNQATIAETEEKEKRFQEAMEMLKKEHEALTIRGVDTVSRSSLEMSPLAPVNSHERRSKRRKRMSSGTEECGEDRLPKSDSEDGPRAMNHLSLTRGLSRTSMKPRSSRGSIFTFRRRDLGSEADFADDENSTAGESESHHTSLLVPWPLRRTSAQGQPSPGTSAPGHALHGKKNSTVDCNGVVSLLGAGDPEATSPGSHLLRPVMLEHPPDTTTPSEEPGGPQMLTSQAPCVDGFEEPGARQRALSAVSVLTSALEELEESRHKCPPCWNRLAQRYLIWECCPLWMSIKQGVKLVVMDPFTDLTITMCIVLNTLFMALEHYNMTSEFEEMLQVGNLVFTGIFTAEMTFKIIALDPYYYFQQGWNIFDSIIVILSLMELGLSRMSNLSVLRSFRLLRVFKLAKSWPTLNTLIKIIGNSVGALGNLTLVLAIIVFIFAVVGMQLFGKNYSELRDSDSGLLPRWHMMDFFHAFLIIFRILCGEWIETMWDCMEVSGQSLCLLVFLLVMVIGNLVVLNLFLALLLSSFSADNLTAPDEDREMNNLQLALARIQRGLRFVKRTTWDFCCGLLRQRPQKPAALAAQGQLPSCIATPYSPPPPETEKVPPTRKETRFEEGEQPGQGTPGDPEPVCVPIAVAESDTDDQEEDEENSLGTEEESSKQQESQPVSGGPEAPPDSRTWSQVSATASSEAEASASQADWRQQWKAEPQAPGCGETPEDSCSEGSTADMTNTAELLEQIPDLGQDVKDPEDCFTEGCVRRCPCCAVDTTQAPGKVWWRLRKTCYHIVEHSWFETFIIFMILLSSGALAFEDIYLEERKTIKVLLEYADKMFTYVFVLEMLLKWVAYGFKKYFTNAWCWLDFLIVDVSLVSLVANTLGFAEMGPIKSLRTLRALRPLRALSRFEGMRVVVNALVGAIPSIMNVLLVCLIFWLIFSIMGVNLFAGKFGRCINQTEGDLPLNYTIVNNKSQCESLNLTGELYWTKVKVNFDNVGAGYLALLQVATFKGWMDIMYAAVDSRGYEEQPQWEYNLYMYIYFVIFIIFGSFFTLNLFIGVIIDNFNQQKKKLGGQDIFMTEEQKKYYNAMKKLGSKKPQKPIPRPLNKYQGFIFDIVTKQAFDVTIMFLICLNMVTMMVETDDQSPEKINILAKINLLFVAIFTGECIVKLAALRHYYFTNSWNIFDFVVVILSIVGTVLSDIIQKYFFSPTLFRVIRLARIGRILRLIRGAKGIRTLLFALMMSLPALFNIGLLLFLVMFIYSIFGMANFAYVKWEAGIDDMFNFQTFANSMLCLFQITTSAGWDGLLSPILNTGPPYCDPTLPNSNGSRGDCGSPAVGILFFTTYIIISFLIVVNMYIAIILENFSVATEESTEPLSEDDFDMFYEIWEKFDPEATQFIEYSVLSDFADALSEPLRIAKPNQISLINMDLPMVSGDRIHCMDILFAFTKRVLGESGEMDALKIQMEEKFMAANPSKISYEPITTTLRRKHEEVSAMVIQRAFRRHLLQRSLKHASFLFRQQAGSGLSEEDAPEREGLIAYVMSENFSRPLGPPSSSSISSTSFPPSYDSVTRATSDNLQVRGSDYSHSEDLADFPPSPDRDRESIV

## O=c1n(CCN2CCC(F)(F)CC2)nc2ccc(-c3ccc(OC(F)(F)F)cc3)cn12 [compound 50, 2-(2-(4,4-difluoropiperidin-1-yl)ethyl)-6-(4-(trifluoromethoxy)phenyl)-[1,2,4]triazolo[4,3-a]pyridin-3(2H)-one]
  inhibition at 1 µM: 14.2%

## O=c1n(CCCOc2ccccc2F)nc2ccc(-c3ccc(OC(F)(F)F)cc3)cn12 [compound 51, 2-(3-(2-fluorophenoxy)propyl)-6-(4-(trifluoromethoxy)phenyl)-[1,2,4]triazolo[4,3-a]pyridin-3(2H)-one]
  inhibition at 1 µM: 25.6%

## O=c1n(CCCOc2ccccc2Cl)nc2ccc(-c3ccc(OC(F)(F)F)cc3)cn12 [compound 52, 2-(3-(2-chlorophenoxy)propyl)-6-(4-(trifluoromethoxy)phenyl)-[1,2,4]triazolo[4,3-a]pyridin-3(2H)-one]
  inhibition at 1 µM: 33.3%

## Cc1noc(Cn2nc3ccc(-c4ccc(Oc5ccc(Cl)cc5)cc4)cn3c2=O)n1 [compound 53, 6-(4-(4-chlorophenoxy)phenyl)-2-((3-methyl-1,2,4-oxadiazol-5-yl)methyl)-[1,2,4]triazolo[4,3-a]pyridin-3(2H)-one]
  inhibition at 1 µM: 55.9%

## O=c1n(CCOc2cccc(Cl)c2)nc2ccc(-c3ccc(OC(F)(F)F)cc3)cn12 [compound 54, 2-(2-(3-chlorophenoxy)ethyl)-6-(4-(trifluoromethoxy)phenyl)-[1,2,4]triazolo[4,3-a]pyridin-3(2H)-one]
  inhibition at 1 µM: 20.2%

## O=c1n(CCOc2ccc(F)cc2)nc2ccc(-c3ccc(OC(F)(F)F)cc3)cn12 [compound 55, 2-(2-(4-fluorophenoxy)ethyl)-6-(4-(trifluoromethoxy)phenyl)-[1,2,4]triazolo[4,3-a]pyridin-3(2H)-one]
  inhibition at 1 µM: 24.3%

## O=c1n(CCc2ncccc2Br)nc2ccc(-c3ccc(OC(F)(F)F)cc3)cn12 [compound 56, 2-(2-(3-bromopyridin-2-yl)ethyl)-6-(4-(trifluoromethoxy)phenyl)-[1,2,4]triazolo[4,3-a]pyridin-3(2H)-one]
  inhibition at 1 µM: 39.8%

## O=c1n(CCc2cc(C3CC3)ccn2)nc2ccc(-c3ccc(OC(F)(F)F)cc3)cn12 [compound 57, 2-(2-(4-cyclopropylpyridin-2-yl)ethyl)-6-(4-(trifluoromethoxy)phenyl)-[1,2,4]triazolo[4,3-a]pyridin-3(2H)-one]
  inhibition at 1 µM: 20.7%

## Cc1ccnc(CCn2nc3ccc(-c4ccc(OC(F)(F)F)cc4)cn3c2=O)c1 [compound 58, 2-(2-(4-methylpyridin-2-yl)ethyl)-6-(4-(trifluoromethoxy)phenyl)-[1,2,4]triazolo[4,3-a]pyridin-3(2H)-one]
  inhibition at 1 µM: 14.9%

## O=c1n(CCc2ccc(F)cc2)nc2ccc(-c3ccc(OC(F)(F)F)cc3)cn12 [compound 59, 2-(4-fluorophenethyl)-6-(4-(trifluoromethoxy)phenyl)-[1,2,4]triazolo[4,3-a]pyridin-3(2H)-one]
  inhibition at 1 µM: 27.1%

## O=c1n(CCc2ncccc2C2CC2)nc2ccc(-c3ccc(OC(F)(F)F)cc3)cn12 [compound 60, 2-(2-(3-cyclopropylpyridin-2-yl)ethyl)-6-(4-(trifluoromethoxy)phenyl)-[1,2,4]triazolo[4,3-a]pyridin-3(2H)-one]
  inhibition at 1 µM: 34.1%

## Cc1cccnc1CCn1nc2ccc(-c3ccc(OC(F)(F)F)cc3)cn2c1=O [compound 61, 2-(2-(3-methylpyridin-2-yl)ethyl)-6-(4-(trifluoromethoxy)phenyl)-[1,2,4]triazolo[4,3-a]pyridin-3(2H)-one]
  inhibition at 1 µM: 41.5%

## O=c1n(Cc2cccc(C(F)(F)F)n2)nc2ccc(-c3ccc(OC(F)(F)F)cc3)cn12 [compound 62, 6-(4-(trifluoromethoxy)phenyl)-2-((6-(trifluoromethyl)pyridin-2-yl)methyl)-[1,2,4]triazolo[4,3-a]pyridin-3(2H)-one]
  inhibition at 1 µM: 21.6%

## O=c1n(CCc2c(F)cccc2F)nc2ccc(-c3ccc(OC(F)(F)F)cc3)cn12 [compound 63, 2-(2,6-difluorophenethyl)-6-(4-(trifluoromethoxy)phenyl)-[1,2,4]triazolo[4,3-a]pyridin-3(2H)-one]
  inhibition at 1 µM: 46.9%

## O=c1n(CCCc2ccc(F)c(Br)c2)nc2ccc(-c3ccc(OC(F)(F)F)cc3)cn12 [compound 64, 2-(3-(3-bromo-4-fluorophenyl)propyl)-6-(4-(trifluoromethoxy)phenyl)-[1,2,4]triazolo[4,3-a]pyridin-3(2H)-one]
  inhibition at 1 µM: 16.7%

## O=c1n(CCOc2cccc(C(F)(F)F)n2)nc2ccc(-c3ccc(OC(F)(F)F)cc3)cn12 [compound 65, 6-(4-(trifluoromethoxy)phenyl)-2-(2-(6-(trifluoromethyl)pyridin-2-yloxy)ethyl)-[1,2,4]triazolo[4,3-a]pyridin-3(2H)-one]
  inhibition at 1 µM: 21.1%

## O=c1n(CCCOc2ccccc2C(F)(F)F)nc2ccc(-c3ccc(OC(F)(F)F)cc3)cn12 [compound 66, 6-(4-(trifluoromethoxy)phenyl)-2-(3-(2-(trifluoromethyl)phenoxy)propyl)-[1,2,4]triazolo[4,3-a]pyridin-3(2H)-one]
  inhibition at 1 µM: 14.7%

## COc1cc(F)ccc1OCCCn1nc2ccc(-c3ccc(OC(F)(F)F)cc3)cn2c1=O [compound 67, 2-(3-(4-fluoro-2-methoxyphenoxy)propyl)-6-(4-(trifluoromethoxy)phenyl)-[1,2,4]triazolo[4,3-a]pyridin-3(2H)-one]
  inhibition at 1 µM: 19.2%

## O=c1n(CC#Cc2cnccc2Cl)nc2ccc(-c3ccc(OC(F)(F)F)cc3)cn12 [compound 68, 2-(3-(4-chloropyridin-3-yl)prop-2-ynyl)-6-(4-(trifluoromethoxy)phenyl)-[1,2,4]triazolo[4,3-a]pyridin-3(2H)-one]
  inhibition at 1 µM: 11.1%

## COc1ccccc1OCCn1nc2ccc(-c3ccc(OC(F)(F)F)cc3)cn2c1=O [compound 69, 2-(2-(2-methoxyphenoxy)ethyl)-6-(4-(trifluoromethoxy)phenyl)-[1,2,4]triazolo[4,3-a]pyridin-3(2H)-one]
  inhibition at 1 µM: 32.5%

## N#Cc1ccccc1OCCCn1nc2ccc(-c3ccc(OC(F)(F)F)cc3)cn2c1=O [compound 70, 2-(3-(3-oxo-6-(4-(trifluoromethoxy)phenyl)-[1,2,4]triazolo[4,3-a]pyridin-2(3H)-yl)propoxy)benzonitrile]
  inhibition at 1 µM: 29.9%

## O=c1n(CCCOc2ccccc2C(F)(F)F)nc2ccc(-c3ccc(OC(F)(F)F)cc3)cn12 [compound 71, 6-(4-(trifluoromethoxy)phenyl)-2-(3-(2-(trifluoromethyl)phenoxy)propyl)-[1,2,4]triazolo[4,3-a]pyridin-3(2H)-one]
Compound at 1 μM
  Late INa 1 μM (percent block of late INa): 26.0692%

## COC[C@@H](Cn1nc2ccc(-c3ccc(OC(F)(F)F)cc3)cn2c1=O)Oc1ncccc1C(F)(F)F [compound 72, (R)-2-(3-methoxy-2-(3-(trifluoromethyl)pyridin-2-yloxy)propyl)-6-(4-(trifluoromethoxy)phenyl)-[1,2,4]triazolo[4,3-a]pyridin-3(2H)-one]
  inhibition at 1 µM: 41.9%

## O=c1n(CCc2cccnc2)nc2ccc(-c3ccc(OC(F)(F)F)cc3)cn12 [compound 73, 2-(2-(pyridin-3-yl)ethyl)-6-(4-(trifluoromethoxy)phenyl)-[1,2,4]triazolo[4,3-a]pyridin-3(2H)-one]
  inhibition at 1 µM: 10.4%
